Data as given in PMC9137552, “Structural Characterization of Two Short Unspecific Peroxygenases: Two Different Dimeric Arrangements” (Antioxidants, 2022).
Where two headings read alike, the source gives them in different places. Each block holds one compound with its values, some of them ahead of it.

Assays:
[1] = tested on: T1, rCviUPO; settings: read-out: K228stop; K228stop variant; 1 mM H2O2; 0.1 M acetate pH 4.0
T1 construct: gene CviUPO

[2] = tested on: T2, rMroUPO; experiment: initial rates, absorbance at […] nm, Michaelis-Menten fit; type: biochemical, Marasmius rotula; settings: 5 mM H2O2; 0.1 M acetate pH 5.0
T2 construct: gene MroUPO; mature enzyme without signal peptide, initial Met added, no tag, codon-optimised in pET23a, E. coli BL21, non-glycosylated; homodimer (C227-C227' disulfide), monomer 26-27 kDa; short UPO

[3] = tested on: T1, rCviUPO; settings: read-out: C235A; 1 mM H2O2; 0.1 M acetate pH 4.0
[4] = tested on: T2, rMroUPO; experiment: initial rates, absorbance at […] nm, Michaelis-Menten fit; type: biochemical, Marasmius rotula; settings: 5 mM H2O2; 0.1 M tartrate pH 4.0
[5] = tested on: T3, rCviUPO; experiment: as above; type: biochemical, Collariella virescens; settings: 1 mM H2O2; 0.1 M tartrate pH 5.0
T3 construct: gene CviUPO; mature enzyme without signal peptide, initial Met added, no tag, codon-optimised in pET23a, E. coli BL21, non-glycosylated; homodimer, monomer 26-27 kDa; known only as recombinant enzyme; short UPO

[6] = tested on: T3, rCviUPO; experiment: as above; type: biochemical, Collariella virescens; settings: 1 mM H2O2; 0.1 M tartrate pH 5.0; read-out: C235A
[7] = tested on: T3, rCviUPO; experiment: as above; type: biochemical, Collariella virescens; settings: K228stop variant; 1 mM H2O2; 0.1 M tartrate pH 5.0
[8] = tested on: T2, rMroUPO; experiment: as above; type: biochemical, Marasmius rotula; settings: 5 mM H2O2; 0.1 M acetate pH 4.6
[9] = tested on: T3, rCviUPO; experiment: as above; type: biochemical, Collariella virescens; settings: 1 mM H2O2; 0.1 M acetate pH 3
[10] = tested on: T3, rCviUPO; experiment: as above; type: biochemical, Collariella virescens; settings: K228stop variant; 1 mM H2O2; pH 4.0 (table note; methods text gives pH 3 or 5)
[11] = tested on: T3, rCviUPO; experiment: as above; type: biochemical, Collariella virescens; settings: 1 mM H2O2; pH 4.0 (table note; methods text gives pH 3 or 5); read-out: C235A
[12] = molecular target: rCviUPO C235A variant (Collariella virescens); experiment: AUC + other: dynamic light scattering; sedimentation velocity, c(s) distributions (SEDFIT); diffusion coefficients from parallel DLS; molecular mass by the Svedberg equation
[13] = molecular target: rCviUPO K228stop variant (C-terminal tail deletion) (Collariella virescens); experiment: as above
[14] = molecular target: recombinant unspecific peroxygenase from Collariella virescens (rCviUPO), native (nonmutated) (Collariella virescens); experiment: SEC; Superdex 75, isocratic elution with 10 mM Tris (pH 7.4), 0.15 M NaCl; masses against standards, compared with SDS-PAGE with mercaptoethanol; P201stop analysed during its last purification step
[15] = molecular target: recombinant unspecific peroxygenase from Collariella virescens (rCviUPO), native (nonmutated) (Collariella virescens); experiment: AUC + other: dynamic light scattering; sedimentation velocity, c(s) distributions (SEDFIT); diffusion coefficients from parallel DLS; molecular mass by the Svedberg equation
[16] = molecular target: recombinant unspecific peroxygenase from Marasmius rotula (rMroUPO), native (nonmutated) (Marasmius rotula); experiment: SEC; Superdex 75, isocratic elution with 10 mM Tris (pH 7.4), 0.15 M NaCl; masses against standards, compared with SDS-PAGE with mercaptoethanol; P201stop analysed during its last purification step

Compound: COc1cccc(OC)c1O [DMP, 2,6-dimethoxyphenol]
Km [4]: 206 ± 38 µM
Km [5]: 4930 ± 470 µM
Km [6]: 4500 ± 424 µM
Km [7]: 3720 ± 250 µM

Compound: COc1ccc(CO)cc1OC [Veratryl alcohol]
Km [8]: 54.2 ± 16.7 µM
Km [9]: 2940 ± 160 µM
Km [10]: 55300 µM
Km [11]: 7240 ± 820 µM

Compound: recombinant unspecific peroxygenase from Marasmius rotula (rMroUPO), native (nonmutated) (enzyme)
stoichiometry N [16]: 2

The next lines start with the values.

Km [1]: 110 ± 15 µM
Km [2]: 246 ± 3 µM
Km [3]: 87 ± 7 µM
Compound: CCn1c(=NN=c2sc3cc(S(=O)(=O)O)ccc3n2CC)sc2cc(S(=O)(=O)O)ccc21 [ABTS, 2,2′-azino-bis(3-ethylbenzothiazoline-6-sulfonic acid)]

stoichiometry N [12]: 2
Compound: rCviUPO C235A variant (enzyme)

stoichiometry N [13]: 2
Compound: rCviUPO K228stop variant (C-terminal tail deletion) (domain or fragment)

stoichiometry N [14]: 2
stoichiometry N [15]: 2
Compound: recombinant unspecific peroxygenase from Collariella virescens (rCviUPO), native (nonmutated) (enzyme)
